In patent US6632813B1, “6-subtituted-7-heteroquinoxalinecarboxylic acid derivatives and addition salts thereof and processes for the preparation of both” (Kyorin Pharmaceutical Co., Ltd., priority 1999, dated 2003):

Tests used:
AMPA receptor = experiment: Binding experiment against AMPA receptor ([3H]-AMPA binding, crude synaptic membranes from cerebral cortex); conditions: [3H]-AMPA 5 nmol/L, potassium thiocyanate 100 mmol/L, 30 minutes at 0° C., rat cerebral cortex crude synaptic membranes; IC50 converted to Ki; read-out: [3H]-AMPA (Ki: μmol/L)
Protocol: Binding Experiment Against AMPA Receptor
To a crude synaptic membranes preparation prepared from cerebral cortex in rat were added [^3H]-AMPA (final concentration: 5 nmol/L) that binds selectively to AMPA receptors, potassium thiocyanate (final concentration: 100 mmol/L) and testing compound, and the mixture was incubated for 30 minutes at 0° C. After the reaction was stopped by suction filtration, the radioactivity on filter was measured with liquid scintillation counter. The specific binding level of [^3H]-AMPA was determined by subtracting the non-specific binding level in the presence of glutamic acid (0.1 mmol/L) from total binding level. The [^3H]-AMPA binding in the absence of testing compound was put on 100, and the concentration of compound to decrease by 50% (IC50 value) was determined, which was converted to Ki value to calculate the binding capacity of each compound to AMPA receptor (Eur. J. Pharmacol., 1993, 246, 195-204).

Row | SMILES | Ki (AMPA receptor) | melting point
1 | O=C(NCc1ccn(-c2cc3nc(C(=O)O)c(=O)[nH]c3cc2Cl)c1)Nc1ccc(C(=O)O)cc1 [Example 10, 7-(3-(((4-Carboxyphenyl)aminocarbonylamino)methyl)pyrrole-1-yl)-6-chloro-3,4-dihydro-3-oxoquinoxaline-2-carboxylic Acid] | 0.067 µmol/L | > 300 °C
2 | COc1cc2[nH]c(=O)c(C(=O)O)nc2cc1-n1ccc(CNC(=O)Nc2ccc(C(=O)O)cc2)c1 [Example 11, 7-(3-(((4-Carboxyphenyl)aminocarbonylamino)methyl)pyrrole-1-yl)-3,4-dihydro-6-methoxy-3-oxoquinoxaline-2-carboxylic Acid] | 0.323 µmol/L | > 300 °C
3 | Cc1cc2[nH]c(=O)c(C(=O)O)nc2cc1-n1ccc(CNC(=O)Nc2ccc(C(=O)O)cc2)c1 [Example 12, 7-(3-(((4-Carboxyphenyl)aminocarbonylamino)methyl)pyrrole-1-yl)-3,4-dihydro-6-methyl-3-oxoquinoxaline-2-carboxylic Acid] | 0.178 µmol/L | > 300 °C
4 | O=C(NCc1ccn(-c2cc3nc(C(=O)O)c(=O)[nH]c3cc2F)c1)Nc1ccc(C(=O)O)cc1 [Example 13] | 0.924 µmol/L | > 300 °C
5 | O=C(NCc1ccn(-c2cc3nc(C(=O)O)c(=O)[nH]c3cc2Cl)c1)Nc1ccccc1 [Example 26] | – | 171 to 173 °C (dec.)

Other lines, results leading:

Row | Ki (AMPA receptor) | melting point | SMILES
6 | – | 158 to 160 °C (dec.) | CC(C)NC(=O)NCc1ccn(-c2cc3nc(C(=O)O)c(=O)[nH]c3cc2Cl)c1 [Example 37]
7 | – | 208 to 210 °C (dec.) | COc1ccc(NC(=O)NCc2ccn(-c3cc4nc(C(=O)O)c(=O)[nH]c4cc3Cl)c2)cc1 [Example 38, 6-Chloro-3,4-dihydro-7-(3-(((4-methoxyphenyl)aminocarbonylamino)methyl)pyrrole-1-yl)-3-oxoquinoxaline-2-carboxylic Acid]
8 | – | 193 to 195 °C (dec.) | O=C(NCc1ccn(-c2cc3nc(C(=O)O)c(=O)[nH]c3cc2Cl)c1)Nc1ccc(Cl)cc1 [Example 39, 6-Chloro-7-(3-(((4-chlorophenyl)aminocarbonylamino)methyl)pyrrole-1-yl)-3,4-dihydro-3-oxoquinoxaline-2-carboxylic Acid]
9 | – | 196 to 198 °C | O=C(NCc1ccn(-c2cc3nc(C(=O)O)c(=O)[nH]c3cc2Cl)c1)Nc1cccc2ccccc12 [Example 40, 6-Chloro-3,4-dihydro-7-(3-(((1-naphthyl)aminocarbonylamino)methyl)pyrrole-1-yl)-3-oxoquinoxaline-2-carboxylic Acid]
10 | – | 199 to 201 °C (dec.) | O=C(Nc1ccccc1)OCc1cn(-c2cc3nc(C(=O)O)c(=O)[nH]c3cc2Cl)cn1 [Example 47, 6-Chloro-3,4-dihydro-3-oxo-7-(4-((phenylcarbamoyloxy)methyl)imidazole-1-yl)quinoxaline-2-carboxylic Acid]
11 | – | 246 to 248 °C (dec.) | O=C(Nc1ccc(C(=O)O)cc1)OCc1cn(-c2cc3nc(C(=O)O)c(=O)[nH]c3cc2Cl)cn1 [Example 53, 7-(4-(((4-Carboxyphenyl)carbamoyloxy)methyl)imidazole-1-yl)-6-chloro-3,4-dihydro-3-oxoquinoxaline-2-carboxylic Acid]
